Test results: US20040072315A1, “Integrin-binding chimeras” (priority 2003, published 2004)
Where a SMILES comes first, the peptide text is derived from it. Bridges are numbered along the chain shown (N, C = ends). [ ]: non-standard residue; d: D form. hArg = N=C(N)NCCCC[C@H](N)C(=O)O; Mpa = O=C(O)CCS

B1: ND9-M3: cleaved ND9 with a fragment of NAP5 linked to dendroaspin, SEQ ID NO:30 (protein)
chain: RSRGCLLLPACVCKDGFYRDTVIGDCVREEECDQHEIIHVGGGGPGPGGGPGGRICYNHLGTKPPTTETCQEDSCYKNIWTFDNIIRRGCGCFTARGDMPGPYCCESDNCNL
modifications: Descriotion of Artificial Sequence: protein fragment ND9-F3
B2: NAP5: anticoagulant protein of hookworm Ancylostoma caninum, SEQ ID NO:28 (protein)
chain: KAYPECGENEWLDDCGTQKPCEAKCNEEPPEEEDPICRSRGCLLLPACVCKDGFYRDTVIGDCVREEECDQHEIIH
modifications: Description of Artificial Sequence: NAP portion of ND9

Legend:
platelets = assay: collagen-induced platelet aggregation; type: cell-based, human; conditions: for IC50: molar value (MW of Repro assumed 42 Kd, Integrilin 720d), read-out: Inhibition of collagen-induced platelet aggregation
Procedure: Platelet aggregation was measured by the increase in light transmission as described previously. Briefly, PRP was prepared from citrated human blood, obtained from healthy individuals, by centrifugation at 200×g for 15 mins. […]

[1] = test system: platelets in PRP from citrated human blood; assay: ADP-induced platelet aggregation in PRP (light transmission); type: cell-based; conditions: 10 μM ADP; for IC50: molar value (MW of Repro assumed 42 Kd, Integrilin 720d), read-out: Inhibition of ADP-induced platelet aggregation
Procedure: Platelet aggregation was measured by the increase in light transmission as described previously. Briefly, PRP was prepared from citrated human blood, obtained from healthy individuals, by centrifugation at 200×g for 15 mins. Platelet aggregation was induced with 10 μM ADP and measured using a Payton Dual-Aggregometer linked to a chart recorder.
The efficacy of wild-type and five variants of dendroaspin was assessed using ADP-induced platelet aggregation in PRP. The percentage of inhibition of platelet aggregation by these mutant dendroaspins was compared with wild-type dendroaspin and the inhibition of platelet aggregation expressed as IC50 values.

[2] = target: integrin αIIbβ3 (glycoprotein GP IIb/IIIa) on human platelets (human) (UniProt P08514); assay: cell-based or functional assay
[3] = test system: factor VIIa, kallikrein, trypsin, chymotrypsin, thrombin, urokinase, plasmin, tissue plasminogen activator, elastase, Staphylococcus aureus V8 protease; conditions: 300-fold molar excess; cited from earlier work
factor Xa [4] = target: factor Xa (Homo sapiens, UniProt P00742); conditions: slow, tight-binding inhibitor; cited from earlier work
Chain of factor Xa (Homo sapiens, UniProt P00742) (P00742 235-488 limits assumed): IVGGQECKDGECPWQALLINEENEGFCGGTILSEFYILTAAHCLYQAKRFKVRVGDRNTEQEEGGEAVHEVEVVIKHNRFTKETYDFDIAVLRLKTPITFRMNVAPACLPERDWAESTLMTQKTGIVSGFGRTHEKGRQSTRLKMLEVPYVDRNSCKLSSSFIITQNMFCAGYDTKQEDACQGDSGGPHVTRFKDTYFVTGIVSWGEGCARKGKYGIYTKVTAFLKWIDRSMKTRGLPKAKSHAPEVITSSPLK
Chain of factor Xa (Homo sapiens, UniProt P00742) (P00742 41-179 partner limits assumed): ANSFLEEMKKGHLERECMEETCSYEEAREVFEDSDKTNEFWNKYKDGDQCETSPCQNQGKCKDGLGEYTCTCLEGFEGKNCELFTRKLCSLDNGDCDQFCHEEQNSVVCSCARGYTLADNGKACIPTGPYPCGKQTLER

factor Xa [5] = assay: single-stage chromogenic assay of factor Xa inhibition (S-2765); type: biochemical; conditions: chromogenic substrate S-2765, 30 min preincubation; for IC50: read-out: Anti-Xa
Procedure: A single-stage chromogenic assay of factor Xa inhibition was used to determine this recombinant molecule. Clotting factor Xa was diluted to […] in 10 mM Hepes (pH 7.5) containing 0.1% bovine serum albumin and 150 mM NaCl (HBSA). Fifty microliters of sample (diluted at vary concentrations into HSBA) were incubated for 30 min at room temperature with 100 μl of factor Xa in a 96-well microtiter plate. Fifty microliters of 1 mM S-2765, a chromogenic substrate for factor Xa, was then added, and the initial rate (mOD per min) of substrate hydrolysis over 5 min was measured at 405/650 nm by using a automated plate reader.

[6] = test system: 11 other serine proteases; conditions: only protease inhibited among 11 other serine proteases; cited from earlier work

| Molecule | Inhibition of collagen-induced platelet aggregation (platelets) [µg/mL] | IC50 (platelets) [µM] | Inhibition of ADP-induced platelet aggregation [1] [µg/mL] | IC50 [1] [µM] | Anti-Xa (factor Xa [5]) [µg/mL] | IC50 (factor Xa [5]) [µM] | further results |
| --- | --- | --- | --- | --- | --- | --- | --- |
| N=C(N)NCCCC[C@@H]1NC(=O)CCSSC[C@@H](C(N)=O)NC(=O)[C@@H]2CCCN2C(=O)[C@H](Cc2c[nH]c3ccccc23)NC(=O)[C@H](CC(=O)O)NC(=O)CNC1=O [Integrilin] ([Mpa][hArg]GDWPC-NH2; disulfide 1-7) | 0.23 | 0.319 | 0.2 | 0.277 |  |  |  |
| Dendroaspin (ligand) |  |  |  |  |  |  | Inhibition of ADP-induced platelet aggregation [2]: 1.2 µg/mL |
| Repro: also known as 7E3, a known inhibitor of integrin-mediated binding; MW assumed 42 Kd | 3.80 | 0.09 | 3.2 | 0.076 |  |  |  |
| TAP: tick anticoagulant peptide from Ornithodoros moubata, factor Xa inhibitor (YNRLCIKPRDWIDECDSNEGGERAYFRNGKGGCDSFWICPEDHTGADYYSSYRDCFNACI) |  |  |  |  | 0.02 to 0.07 | 0.0028 to 0.01 | effect on other proteases [3]: no effect; Ki (factor Xa [4]): 0.000588 µM |
| B1 | 3.90 | 0.24 | 4.2 | 0.26 | 2.3 | 0.141 |  |
| B2 |  |  |  |  |  |  | inhibition of Factor Xa [6]: 50% |
